Measured values reported in patent US9890133B2 (priority 2011, dated 2018).
In brackets after ≈: the same amount, converted by molar mass.

Experiments:
in vitro = conditions: human
Poliovirus 3 = experiment: microbe, parasite or virus in culture; format: cell-based; conditions: Enterovirus C, read-out: Poliovirus3 EC50

Compound | CC50 (in vitro) [µg/mL] | CC50 (in vitro; Picorana CC50) [µg/mL] | EC50 (Poliovirus 3) [µg/mL] | CC50 (in vitro; Rhino CC50) [µg/mL]
COC(=O)c1ccc(C(=O)NC23C(=O)c4c(N)cccc4C2(O)Oc2cc(C(C)C)ccc23)cc1 (centres unmarked) [Example 189, Methyl-4-(1-amino-4b-hydroxy-7-isopropyl-10-oxo-9b,10-dihydro-4bH-benzo[d]indeno[1,2-b]furan-9b-ylcarbamoyl)benzoate] | > 10 | 8.56 (≈ 18.1 µM) | < 0.01 | –
CC(C)c1ccc2c(c1)OC1(O)c3cccc(N)c3C(=O)C21NC(=O)c1cccc(Cl)c1 (centres unmarked) [Example 190, N-(1-Amino-4b-hydroxy-7-isopropyl-10-oxo-9b,10-dihydro-4bH-indeno[1,2-b]benzofuran-9b-yl)-3-chlorobenzamide] | 5.52 (≈ 12.3 µM) | > 10 | < 0.01 | –
Cc1cc(C)cc(C(=O)NC23C(=O)c4c(N)cccc4C2(O)Oc2cc(C(C)C)ccc23)c1 (centres unmarked) [Example 191, N-(1-Amino-4b-hydroxy-7-isopropyl-10-oxo-9b,10-dihydro-4bH-indeno[1,2-b]benzofuran-9b-yl)-3,5-dimethylbenzamide] | > 10 | 4.12 (≈ 9.31 µM) | < 0.01 | –
CC(C)c1ccc2c(c1)OC1(O)c3cccc(N)c3C(=O)C21NC(=O)CF (centres unmarked) [Example 193, N-(1-Amino-4b-hydroxy-7-isopropyl-10-oxo-9b,10-dihydro-4bH-benzo[d]indeno[1,2-b]furan-9b-yl)-2-fluoroacetamide] | – | > 10 | 0.011 (≈ 0.0297 µM) | > 10
CC(C)c1ccc2c(c1)OC1(O)c3cccc(N)c3C(=O)C21NC(=O)c1ccccn1 (centres unmarked) [Example 197, N-(1-Amino-4b-hydroxy-7-isopropyl-10-oxo-9b,10-dihydro-4bH-indeno[1,2-b]benzofuran-9b-yl)picolinamide] | 16 (≈ 38.6 µM) | 34.5 (≈ 82.9 µM) | < 0.01 | –
CC(C)c1ccc2c(c1)OC1(O)c3cccc(N)c3C(=O)C21NC(=O)c1cccnc1 (centres unmarked) [Example 198, N-(1-Amino-4b-hydroxy-7-isopropyl-10-oxo-9b,10-dihydro-4bH-indeno[1,2-b]benzofuran-9b-yl)nicotinamide] | 27.9 (≈ 67.3 µM) | > 50 | < 0.01 | –
CC(C)c1ccc2c(c1)OC1(O)c3cccc(N)c3C(=O)C21NC(=O)c1ccncc1 (centres unmarked) [Example 199, N-(1-Amino-4b-hydroxy-7-isopropyl-10-oxo-9b,10-dihydro-4bH-indeno[1,2-b]benzofuran-9b-yl)isonicotinamide] | 43 (≈ 103 µM) | 48.3 (≈ 116 µM) | < 0.01 | –
CC(C)c1ccc2c(c1)OC1(O)c3cccc(N)c3C(=O)C21NC(=O)c1cnccn1 (centres unmarked) [Example 200, N-(1-Amino-4b-hydroxy-7-isopropyl-10-oxo-9b,10-dihydro-4bH-indeno[1,2-b]benzofuran-9b-yl) pyrazine-2-carboxamide] | > 10 | – | < 0.01 | –
CC(C)c1ccc2c(c1)OC1(O)c3cccc(N)c3C(=O)C21NC(=O)c1ccco1 (centres unmarked) [Example 201, N-(1-Amino-4b-hydroxy-7-isopropyl-10-oxo-9b,10-dihydro-4bH-indeno[1,2-b]benzofuran-9b-yl)furane-2-carboxamide] | > 10 | – | < 0.01 | –
CC(C)c1ccc2c(c1)OC1(O)c3cccc(N)c3C(=O)C21NC(=O)c1ccc2ncccc2c1 (centres unmarked) [Example 203] | > 10 | – | < 0.01 | –
CC(C)c1ccc2c(c1)OC1(O)c3cccc(N)c3C(=O)C21NC(=O)c1cc2ccccc2o1 (centres unmarked) [Example 204, N-(1-Amino-4b-hydroxy-7-isopropyl-10-oxo-9b,10-dihydro-4bH-benzo[d]indeno[1,2-b]furan-9b-yl)benzofurane-2-carboxamide] | > 10 | > 4.51 | 0.011 (≈ 0.0242 µM) | –
Cc1c(C(=O)NC23C(=O)c4c(N)cccc4C2(O)Oc2cc(C(C)C)ccc23)oc2ccccc12 (centres unmarked) [Example 205] | > 10 | – | 0.036 (≈ 0.0768 µM) | –
Cc1ncsc1C(=O)NC12C(=O)c3c(N)cccc3C1(O)Oc1cc(C(C)C)ccc12 (centres unmarked) [Example 206, N-(1-Amino-4b-hydroxy-7-isopropyl-10-oxo-9b,10-dihydro-4bH-indeno[1,2-b]benzofuran-9b-yl)-4-methylthiazole-5-carboxamide] | > 10 | – | < 0.01 | –
CC(C)c1ccc2c(c1)OC1(O)c3cccc(N)c3C(=O)C21NC(=O)[C@@H]1CSC(=O)N1 (stereo partly drawn) [Example 207, (4R)—N-(1-amino-4b-hydroxy-7-isopropyl-10-oxo-9b,10-dihydro-4bH-indeno[1,2-b]benzofuran-9b-yl)-2-oxothiazolidine-4-carboxamide] | > 10 | – | < 0.01 | –
CC(C)c1ccc2c(c1)OC1(O)c3ccccc3C(=O)C21NC(=O)c1c[nH]c2ccccc12 (centres unmarked) [Example 209, N-(4b-Hydroxy-7-isopropyl-10-oxo-9b,10-dihydro-4bH-indeno[1,2-b]benzofuran-9b-yl)-1H-indole-3-carboxamide] | 8.43 (≈ 19.2 µM) | > 10 | 0.036 (≈ 0.0821 µM) | –
CC(C)c1ccc2c(c1)OC1(O)c3cccc(N)c3C(=O)C21NC(=O)c1n[nH]c2ccccc12 (centres unmarked) [Example 212, N-(1-Amino-4b-hydroxy-7-isopropyl-10-oxo-9b,10-dihydro-4bH-benzo[d]indeno[1,2-b]furan-9b-yl)-1H-indazole-3-carboxamide] | > 10 | – | < 0.01 | –
CC(C)c1ccc2c(c1)OC1(O)c3cccc(N)c3C(=O)C21NC(=O)Cn1cnnn1 (centres unmarked) [Example 213, N-(1-Amino-4b-hydroxy-7-isopropyl-10-oxo-9b,10-dihydro-4bH-benzo[d]indeno[1,2-b]furan-9b-yl)-2-(1H-tetrazol-1-yl)acetamide] | > 10 | – | < 0.01 | –
CC(C)c1ccc2c(c1)OC1(O)c3cccc(N)c3C(=O)C21NC(=O)c1cnc2ccccc2c1 (centres unmarked) [Example 214, N-(1-Amino-4b-hydroxy-7-isopropyl-10-oxo-9b,10-dihydro-4bH-indeno[1,2-b]benzofuran-9b-yl)quinoline-3-carboxamide] | > 10 | – | < 0.01 | –
CC(C)c1ccc2c(c1)OC1(O)c3cccc(N)c3C(=O)C21NC(=O)c1ccnc2ccccc12 (centres unmarked) [Example 215, N-(1-Amino-4b-hydroxy-7-isopropyl-10-oxo-9b,10-dihydro-4bH-indeno[1,2-b]benzofuran-9b-yl)quinoline-4-carboxamide] | > 10 | – | < 0.01 | –
COc1sccc1C(=O)NC12C(=O)c3c(N)cccc3C1(O)Oc1cc(C(C)C)ccc12 (centres unmarked) [Example 217, N-(1-Amino-4b-hydroxy-7-isopropyl-10-oxo-9b,10-dihydro-4bH-indeno[1,2-b]benzofuran-9b-yl)-2-methoxythiophene-3-carboxamide] | > 10 | 4.24 (≈ 9.41 µM) | 0.038 (≈ 0.0843 µM) | –
CC(C)c1ccc2c(c1)OC1(O)c3ccccc3C(=O)C21NC(=O)c1ccc2[nH]nnc2c1 (centres unmarked) [Example 221, N-(4b-Hydroxy-7-isopropyl-10-oxo-9b,10-dihydro-4bH-benzo[d]indeno[1,2-b]furan-9b-yl)-1H-benzo[d][1,2,3]triazole-5-carboxamide] | 6.53 (≈ 14.8 µM) | 14.5 (≈ 32.9 µM) | 0.016 (≈ 0.0363 µM) | –
CC(C)c1ccc2c(c1)OC1(O)c3ccccc3C(=O)C21NC(=O)c1ccc([N+](=O)[O-])s1 (centres unmarked) [Example 223, N-(4b-hydroxy-7-isopropyl-10-oxo-9b,10-dihydro-4bH-benzo[d]indeno[1,2-b]furan-9b-yl)-5-nitrothiophene-2-carboxamide] | 4.36 (≈ 9.68 µM) | 7.46 (≈ 16.6 µM) | < 0.01 | –
CC(C)c1ccc2c(c1)OC1(O)c3cccc(N)c3C(=O)C21NC(=O)C(=O)c1cccs1 (centres unmarked) [Example 231, N-(1-Amino4b-hydroxy-7-isopropyl-10-oxo-9b,10-dihydro-4bH-indeno[1,2-b]benzofuran-9b-yl)-2-oxo-2-(thiophen-2-yl)acetamide] | > 10 | 8.64 (≈ 19.3 µM) | < 0.01 | –
CC(C)c1ccc2c(c1)OC1(O)c3cccc(N)c3C(=O)C21NC(=O)c1ccc[nH]1 (centres unmarked) [Example 233, N-(1-Amino-4b-hydroxy-7-isopropyl-10-oxo-9b,10-dihydro-4bH-indeno[1,2-b]benzofuran-9b-yl)-1H-pyrrole-2-carboxamide] | > 10 | 31.9 (≈ 79 µM) | < 0.01 | –
COc1cc(C(=O)NC23C(=O)c4c(N)cccc4C2(O)Oc2cc(C(C)C)ccc23)ccn1 (centres unmarked) [Example 234, N-(1-Amino-4b-hydroxy-7-isopropyl-10-oxo-9b,10-dihydro-4bH-indeno[1,2-b]benzofuran-9b-yl)-2-methoxyisonicotinamide] | > 10 | 9.1 (≈ 20.4 µM) | < 0.01 | –
CC(C)c1ccc2c(c1)OC1(O)c3cccc(N)c3C(=O)C21NC(=O)c1cc2ccccc2s1 (centres unmarked) [Example 235, N-(1-Amino-4b-hydroxy-7-isopropyl-10-oxo-9b,10-dihydro-4bH-benzo[d]indeno[1,2-b]furan-9b-yl)benzo[b]thiophene-2-carboxamide] | 8.88 (≈ 18.9 µM) | 7.97 (≈ 16.9 µM) | < 0.01 | –
CC(C)c1ccc2c(c1)OC1(O)c3cccc(N)c3C(=O)C21NC(=O)c1cnnc2ccccc12 (centres unmarked) [Example 238, N-(1-Amino-4b-hydroxy-7-isopropyl-10-oxo-9b,10-dihydro-4bH-benzo[d]indeno[1,2-b]furan-9b-yl)cinnoline-4-carboxamide] | > 10 | 8.33 (≈ 17.9 µM) | < 0.01 | –
CC(C)c1ccc2c(c1)OC1(O)c3ccccc3C(=O)C21NC(=O)c1ccc2[nH]cnc2c1 (centres unmarked) [Example 240, N-(4b-hydroxy-7-isopropyl-10-oxo-9b,10-dihydro-4bH-benzo[d]indeno[1,2-b]furan-9b-yl)-1H-benzo[d]imidazole-5-carboxamide] | > 10 | 8.25 (≈ 18.8 µM) | < 0.01 | –
CC(C)c1ccc2c(c1)OC1(O)c3cccc(N)c3C(=O)C21NC(=O)c1n[nH]cc1[N+](=O)[O-] (centres unmarked) [Example 242, N-(1-Amino-4b-hydroxy-7-isopropyl-10-oxo-9b,10-dihydro-4bH-benzo[d]indeno[1,2-b]furan-9b-yl)-4-nitro-1H-pyrazole-3-carboxamide] | > 10 | 8.55 (≈ 19 µM) | < 0.01 | –
Cc1ccnc(C(=O)NC23C(=O)c4c(N)cccc4C2(O)Oc2cc(C(C)C)ccc23)c1 (centres unmarked) [Example 243, N-(1-Amino-4b-hydroxy-7-isopropyl-10-oxo-9b,10-dihydro-4bH-benzo[d]indeno[1,2-b]furan-9b-yl)-4-methylpicolinamide] | > 10 | 7.36 (≈ 17.1 µM) | < 0.01 | –
